Results taken from patent US11219697B2, “Osteoadsorptive fluorogenic substrate of cathepsin k for imaging osteoclast activity and migration” (The Regents of the University of California, priority 2017, dated 2022).
“Also recorded” adds a separate entry of the source. Where two headings read alike, the source gives them in different places. *: point of attachment. pamidronate = 1-hydroxy-1,1-bisphosphonate, amide on Lys carboxyl, O=P(O)(O)C(O)(CCN*)P(=O)(O)O; BHQ‑1 = Black Hole Quencher-1; βAla = NCCC(=O)O

Legend:
[1] = Adsorption on calcium phosphate substrates; assay type: physicochemical
[2] = system: human osteoclasts; experiment: Human osteoclasts co-cultured with human multiple myeloma cells (8226-LUC); assay type: cell-based; details: co-cultured with 8226-LUC
[3] = molecular target: T1, Cathepsin K (Homo sapiens, UniProt P43235); experiment: Enzyme studies: cleavage of the probe by activated cathepsin K, initial rates, Lineweaver-Burke plot; assay type: biochemical
T1 construct: purchased Enzo Life Sciences
T1 sequence (P43235 115-329): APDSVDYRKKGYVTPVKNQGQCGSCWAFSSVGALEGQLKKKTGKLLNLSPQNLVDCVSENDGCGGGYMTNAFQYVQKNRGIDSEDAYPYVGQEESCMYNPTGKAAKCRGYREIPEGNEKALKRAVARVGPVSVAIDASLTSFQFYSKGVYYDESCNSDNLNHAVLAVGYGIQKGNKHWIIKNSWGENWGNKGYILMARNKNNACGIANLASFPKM
Method: Kinetic parameters Kcat and Km were determined from initial rates at 37° C. and pH 5.5 in a buffer consisting of 50 mM sodium acetate buffer with 2.5 mM EDTA, 1 mM DTT and 0.01% TRITON X-100®. Enzyme concentration was 2.5 nM, substrate concentration ranged from 0.0781 to 2.50 μM. Fluorescence measurements were done every 1 min using a Biotek Synergy H4 plate reader with black Corning 3720 96-well plates. Parameters were determined using a Lineweaver-Burke plot. Fluorescence calibration was obtained using compound 9a at concentrations between 0.00977 and 2.5 μM. Background fluorescence was estimated using intact 10a at concentrations ranging from 0.0781 to 2.50 μM.
Cathepsin K was prepared by activation of procathepsin K purchased from Enzo Life Sciences. Activation was carried out by adding […], pH 3.5 sodium acetate buffer in a 1:2 ratio to as-received proenzyme solution and leaving at 21° C. for 30 min before dilution with assay buffer. Solutions of activated enzyme were stored on ice and used within 10 min. Buffers were prepared in house according to concentrations provided by Enzo Life Sciences.

[4] = system: monocyte-derived human osteoclasts; experiment: Osteoclasts cultured on calcium phosphate coated microwells preadsorbed with probe, fluorescence timelapse; assay type: cell-based
Excerpt: We attribute this to a lack of calcium phosphate for the probe to bind to. In several cases, osteoclasts can be seen migrating on the surface without completely dissolving the calcium phosphate and leaving a trail of enhanced fluorescence in their wake (see, e.g., FIG. 4). This is how the probe is presumed to function in vivo, by fluorescently labeling any regions exposed to osteoclast resorptive activity. […] Another phenomenon observed in all videos was a transient decrease in fluorescence within the boundaries of the osteoclast sealing zone, seen as rapidly moving dark areas around the cells (see, e.g., FIG. 5). This effect was expected and results from the pH sensitivity of carboxyfluorescein. The pH under an active osteoclast has been reported to be as low as 4.5 (Teitelbaum (2000) Science, 289(5484): 1504-1508). Carboxyfluorescein cyclizes to a nonfluorescent form when protonated and has a pKa of approximately 6.5 (Han & Burgess (2010) Chem. Rev. 110: 2709-2728; Massou et al. (2000) Biochem. Educ. 28:171-173). Thus fluorescent intensity is decreased. This is further evidence that the probe is exposed to the sub-osteoclast environment as intended. Another phenomenon observed in the timelapses was concentrated fluorescent intensity in cells themselves, both attached and detached from the substrate. […]

[5] = system: osteoclast activity; experiment: Fluorescence imaging of maxilla ex vivo in mice after tooth extraction; details: young mice, 5 nMol/mouse
Excerpt: FIG. 8, panels a-c, show White light (left) and fluorescence (right) images of mice after tooth extraction. Panel a) Vehicle control; Panel b) OFS-1 (5a) 5 nMol/mouse; Panel c) Positive control (4a) 5 nMol/mouse

[6] = system: 8226-LUC human multiple myeloma cells; experiment: OFS-1 activation by multiple myeloma in humanized BLT mice; assay type: in vivo; details: humanized mice carrying 8226-LUC cells
Method: FIG. 9, panels a-c, illustrates OFS-1 activation by multiple myeloma in humanized mice. 8226-LUC human multiple myeloma cells were injected to humanized BLT mice.

[7] = molecular target: T1, Cathepsin K; details: values found in literature; cited from earlier work
[8] = cited from earlier work

Molecule: OFS-1: bone-targeted pamidronate probe with 5-FAM fluorophore and BHQ-1 quencher linked by cathepsin K peptide Gly-His-Pro-Gly-Gly-Pro-Gln-Gly ({BHQ‑1}-GHPGGPQG-{βAla-K(5-FAM)-pamidronate})
- Adsorption on calcium phosphate substrates [1]: avidly adsorbed on calcium phosphate substrates; also recorded: found to adsorb on calcium phosphate substrates
- OFS-1 activation by osteoclasts in co-culture with multiple myeloma cells [2]: significantly increased OFS-1 activation
- Kcat ([3]; in solution at 37° C., pH 5.5): 0.2 ± 0.03 s⁻¹
- Km ([3]; in solution at 37° C., pH 5.5): 1.7 ± 0.2 µM
- Cleavage/activation by cathepsin K ([3]; purified cathepsin K): cleaved by cathepsin K albeit at a slower rate; also recorded: activated by purified cathepsin K
- Fluorescent signal in response to osteoclast resorptive activity [4]: give a fluorescent signal in response to resorptive activity
- Fluorescent signal in response to osteoclast resorptive activity ([4]; listed as USC FRET-1): increased fluorescence around cells that were actively resorbing hydroxyapatite (HA)
- Fluorescent signal in maxilla ex vivo after tooth extraction [5]: increased fluorescent signal in maxilla ex vivo; also recorded: enhanced signal in response to tooth extraction
- Probe activation / fluorescent signal at multiple myeloma engrafted sites [6]: localized at the multiple myeloma (8226-LUC) engrafted site; also recorded: Strong activation

Molecule: Abz-HPGGPQ-EDN2Ph
- Kcat (literature value) [7]: 0.5 ± 0.03 s⁻¹
- Km [7]: 1.2 ± 0.2 µM

Molecule: O=C(O)c1ccc2c(c1)C(=O)OC21c2ccc(O)cc2Oc2cc(O)ccc21 [Carboxyfluorescein, 5-carboxyfluorescein]
- pKa [8]: approximately 6.5
